Experimental data reported in article PMC5427923, “A novel CCR2 antagonist inhibits atherogenesis in apoE deficient mice by achieving high receptor occupancy” (Scientific Reports, 2017).
Where two headings read alike, the source gives them in different places.

Target: T1, murine CCR2 (mCCR2) (Mus musculus, UniProt P51683)
T1 construct: expressed in transfected cells; host or cells: CHO cells, transient transfection (PEI) with pcDNA3.1+ plasmid; membrane preparation
Test: [3H]INCB3344 association, dissociation and competition association (kinetic) assays on CHO-mCCR2 membranes
Format: binding
Description: Radioligand binding assays were performed in a 100 µL reaction volume containing 50 mM Tris-HCl buffer (pH 7.4), 5 mM MgCl2, 0.1% 3-[(3-cholamidopropyl)-dimethylammonio]-1-propanesulfonic acid (CHAPS), 5 nM [^3H]INCB3344 and 50 to 60 µg of membrane protein at 25 °C. Non-specific binding was determined with 10 μM of the cold ligand INCB3344. Displacement assays were carried out using 9 concentrations of competing ligand, ranging from 0.1 nM to 100 μM, for 120 min of incubation. The kinetic parameters of 15a were also determined at 25 °C using a competition association assay as previously described, [27]. For association and competition association experiments, CHO-mCCR2 membranes were added to the reaction volume at different time points, in the absence or presence of 30 nM of competing ligand. For dissociation experiments, CHO-mCCR2 membranes were first incubated with 5 nM [^3H]INCB3344 for 60 min. Dissociation was initiated by addition of 10 µM of INCB3344 at different time points. For all experiments, incubation was terminated by dilution with ice-cold 50 mM Tris-HCl buffer supplemented with 5 mM MgCl2 and 0.05% CHAPS. Separation of bound from free radioligand was performed by rapid filtration over a 96-well GF/B filter plate using a Perkin Elmer Filtermate-harvester (Perkin Elmer, Groningen, the Netherlands) in the case of displacement assays; or over GF/B filters using a Brandel harvester 24 (Brandel, Gaithersburg, MD, USA) for kinetic assays. Filter-bound radioactivity was determined by scintillation spectrometry after addition of Microscint scintillation cocktail (Perkin-Elmer, Groningen, the Netherlands). The P-E 2450 Microbeta2 plate counter (Perkin Elmer, Groningen, The Netherlands) was used for displacement assays, and the TRI Carb 2900 TR counter (Perkin Elmer, Groningen, The Netherlands) for kinetic assays.
All radioligand binding assays were analyzed using Prism 6.0 (GraphPad software, San Diego, CA, USA). All data shown represent means ± SEM of at least three independent experiments performed in duplicate. Ki values were calculated from IC50 values obtained by non-linear regression analysis of the displacement assays and by using the Cheng-Prusoff equation[47]. Dissociation rate constants k off were determined by fitting the dissociation data using an exponential decay model. Association rate constants k on were obtained by converting the apparent association rate constants k obs according to the equation k on = (k obs − k off)/[L], in which L is the radioligand concentration used for the experiments, k obs is the constant rate determined using exponential association analysis and k off represents the mean k off value obtained independently in the dissociation experiments. The kinetic profile of compound 15a was determined by calculation of its kinetic rate index (KRI) value. The KRI values were calculated according to the equation KRI = Bt1/Bt2, in which Bt represents the specific radioligand binding measured at t1 = 15 min and t2 = 210 min. In addition, the association and dissociation rates of 15a were obtained by nonlinear regression analysis of the competition association data using the equations described by Motulsky and Mahan[27]. […] In addition, the RT was calculated by obtaining the reciprocal of the k off. Data obtained from in vivo experiments are expressed as mean ± SEM. […] Non-Gaussian distributed data were analyzed using a two-tailed Mann-Whitney U test. […]

T1 sequence (P51683 whole entry): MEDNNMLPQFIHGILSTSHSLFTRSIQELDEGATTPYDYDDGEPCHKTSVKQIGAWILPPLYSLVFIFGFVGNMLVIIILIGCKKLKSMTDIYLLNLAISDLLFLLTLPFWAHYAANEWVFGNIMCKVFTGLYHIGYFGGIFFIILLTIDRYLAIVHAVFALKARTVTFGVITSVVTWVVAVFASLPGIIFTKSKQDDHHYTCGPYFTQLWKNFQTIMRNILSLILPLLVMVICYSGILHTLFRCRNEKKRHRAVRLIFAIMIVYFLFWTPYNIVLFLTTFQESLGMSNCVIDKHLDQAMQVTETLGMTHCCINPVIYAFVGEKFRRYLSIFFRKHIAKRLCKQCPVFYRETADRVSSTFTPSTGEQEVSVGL

CC(C)[C@]1(C(=O)N2CCc3ccc(C(F)(F)F)cc3C2)CC[C@@H](N[C@@H]2CCc3cc(Br)ccc32)C1 [15a, ((1S,3R)-3-(((R)-5-bromo-2,3-dihydro-1H-inden-1-yl)amino)-1-isopropylcyclopentyl)(7-(trifluoromethyl)-3,4-dihydroisoquinolin-2(1H)-yl)methanone]
kon (mCCR2, 25 °C): 117000 M⁻¹ s⁻¹
KRI (kinetic rate index) (mCCR2, 25 °C, KRI = Bt1/Bt2, t1 = 15 min, t2 = 210 min): 1.6
Kd (mCCR2, 25 °C, read-out: K D (kinetic, k off/k on)): 7.4 ± 1.5 nM
koff (mCCR2, 25 °C, read-out: k off (converted)): 0.00085 s⁻¹
koff (mCCR2, corresponding to 0.051 min^−1, read-out: k off (as set for the simulations) (converted)): 0.00085 s⁻¹
